Reference: patent US20260182575A1, “MOLECULES HAVING PESTICIDAL UTILITY AND INTERMEDIATES AND PROCESSES RELATED THERETO” (CORTEVA AGRISCIENCE LLC, priority 2022, published 2026)
Where “and” joins values, the source holds several entries; their conditions need not be identical. Equal values may be shown once.

How the values were obtained:
Assay type in all cases: in vivo
[1] = test system: Sweet Potato Whitefly (Bemisia tabaci, BEMITA, SPW); experiment: Bioassay 2: sweet potato whitefly, cotton seedling foliar spray; details: AI alone
Procedure: Stock solutions were prepared with F1 as well as for each of the active ingredients individually. Test solutions were prepared from the stock solutions. Test solutions were prepared containing F1, the individual active ingredients, and mixtures of F1 with each of the active ingredients. The test solutions for F1 and the individual active ingredients were prepared by adding 500 μL of stock solution to a 25 mL glass vial, then adding 500 μL of acetone, followed by the addition of 9 mL water with 0.025% Tween® 20 to create a 0.001% (w/v) solution. The test solutions containing mixtures of F1, and the individual active ingredients were prepared by adding 500 μL of the active ingredient stock solution to a 25 mL glass vial, followed by 500 μL of the F1 stock solution, then by the addition of 9 mL water with 0.025% Tween® 20 to create a test solution containing 0.001% (w/v) F1 and 0.001% (w/v) of the active ingredient. Each test solution was serially diluted to create desired doses of test solutions (0.001% (w/v), 0.0001% (w/v), 0.00001% (w/v), 0.000001% (w/v), 0.0000001% (w/v), and 0.00000001% (w/v)).
The test solutions were tested against SPW using the following procedure: Cotton seedlings grown in 3-inch pots, pruned so that only one true leaf remained, were used as test substrate. Adult B. tabaci were allowed to colonize the cotton plants and lay eggs for 24 hours after which all adults were removed from the plants using compressed air. Plants were monitored for egg development, and when crawler emergence was underway (>25% emergence based on visual examination using a microscope), the plants were sprayed using the test solutions and methods described above for green peach aphids (GPA). Treated plants were held in a holding room at approximately 25° C. and ambient relative humidity (RH) prior to grading. Evaluation was conducted by counting the number of developed 2-3 instar nymphs per plant under a microscope 7-9 days after treatment. Percent control was measured using Abbott's correction formula (W. S. Abbott, J. Econ. Entomol. 18 (1925), pp. 265-267) as follows:
where X=No. of live nymphs on solvent check plants and Y=No. of live nymphs on treated plants. In Table B2 the “Expected % Control” was calculated using the method described in Colby S. R., Weeds, 1967, 15, 20-22. Bioassay 3: Western Flower Thrips (Frankliniella occidentalis, FRANOC, “WFT”).

[2] = test system: Brown Planthopper (Nilaparvata lugens, NILALU, BPH); experiment: Bioassay 6: brown planthopper, sprayed rice seedlings; details: AI alone, AI Rate 0.049 g/ha, 6 days
Procedure: At these rates, F1 and the individual active ingredients were tested at a ratio of 1:1. […] F1 and triflumezopyrim were tested at a ratio of 16:1. Test solutions were prepared containing F1, the individual active ingredients, and mixtures of F1 with each of the active ingredients. Test solutions were prepared by weighing 5 mg of each test chemistry (either alone or in combination depending on the treatment) into a 25 mL glass vial. Next, 1 mL of acetone was added to each vial to dissolve the test chemistries, followed by 19 mL of water with 0.125% Tween 20 adjuvant. This test solution represented the 50 g/ha treatment, which was then serially diluted four-fold to create the three lower rates of 12.5, 3.125, and 0.78 g/ha. Triflumezopyrim was prepared in a similar manner, but two additional serial dilutions were conducted to create solutions representing 6 rates of 12.5, 3.125, 0.78, 0.19, 0.049, and 0.012 g/ha. The higher two doses were discarded, and the four lower doses were used for testing. Each rate was replicated four times, and solvent blanks were used as control treatments.
Five (5) rice seedlings (10-12 days old) planted in 3-inch pots were used as test plants. Rice seedlings were grown in soil and the soil was covered with a 2% agar solution. The test solutions were applied to test plants using a Devries laboratory research sprayer, set to spray at 200 liters per hectare (L/ha) using a TeeJet hollow cone nozzle. Following application, the rice seedlings were dried for 1 hour, after which a single clear plastic tube (2 inches in diameter×12 inches in height) was placed over the seedlings in each pot. The tube was pushed down into the agar to create a sealed test chamber. The agar prevented insects from hiding in the soil and made adult collection and grading easier. Ten to fifteen (10-15) 5th instar BPH nymphs were transferred to each test chamber using a vacuum aspirator. Immediately following BPH infestation, the test chamber was covered with a piece of grade 90 cheesecloth and secured with a rubber band, sealing the test chamber. The test chambers were held at 25° C. for 6 days, after which the total number of live insects was counted in each test chamber. Percent control was measured using Abbott's correction formula (W. S. Abbott, J. Econ. Entomol. 18 (1925), pp. 265-267) as follows:
where X=No. of live insects on solvent check and Y=No. of live insects in treated chambers. In Table B6 the “Expected % Control” was calculated using the method described in Colby S. R., Weeds, 1967, 15, 20-22. Bioassay 7: Corn Earworm (Helicoverpa zea, HELIZE, “CEW”), Fall Armyworm (Spodoptera frugiperda, LAPHFR, “FAW”), Beet Armyworm (Spodoptera exigua, LAPHEG, “BAW”),and Soybean Looper (Chrysodeixis includens, PSEPIN, “SBL”).

[3] = test system: Soybean Looper (Chrysodeixis includens, PSEPIN, SBL); experiment: Bioassay 4: soybean looper, artificial diet, 128-cell tray; details: AI alone
How it was run: (§1)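 Test solutions (0.0000004–0.04% w/v, i.e. 0.00005–5 μg/cm² on diet) were pipetted onto artificial lepidopteran diet and one 2nd-instar larva was placed per cell, 8 replicates per species, held at ~26° C. Live larvae were counted after 5 days; percent control used Abbott's correction against a solvent check.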

[4] = test system: Fall Armyworm (Spodoptera frugiperda, LAPHFR, FAW); experiment: Bioassay 4: fall armyworm, artificial diet, 128-cell tray; details: AI alone
How it was run: as §1

[5] = test system: Corn Earworm (Helicoverpa zea, HELIZE, CEW); experiment: Bioassay 4: corn earworm, artificial diet, 128-cell tray; details: AI alone
How it was run: as §1

SMILES | Average % Control AI ([1]; Wt % AI 0.0001, 7-9 days) [%] | Average % Control AI [2] | Average % Control AI ([3]; 0.000004 wt %) [%] | Average % Control AI ([3]; 0.00004 wt %) [%] | Average % Control AI ([4]; 0.000004 wt %) [%] | Average % Control AI ([4]; 0.00004 wt %) [%] | Average % Control AI ([5]; 0.000004 wt %) [%] | Average % Control AI ([5]; 0.00004 wt %) [%] | Average % Control AI ([1]; Wt % AI 0.00001, 7-9 days) [%]
N#CCNC(=O)c1cnccc1C(F)(F)F [Flonicamid] | 0.0 | 5.4% and 1.1% | 0.0 | 0.0 | 0.0 | 0.0 | 0.0 | 0.0 | –
O=C1C=C(N(Cc2ccc(Cl)nc2)CC(F)F)CO1 [Flupyradifurone] | 39.2 | 16.3% and 7.6% | 0.0 | 0.0 | 0.0 | 0.0 | 0.0 | 0.0 | 22.9
